#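 Grown in 96-well plates, cells were treated for 48 hours with each compound at five concentrations. Insufficient inhibition: endpoint recorded as highest concentration tested. GI50 marks 50% less growth.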 Activity calls are given as the source filed them. Rule as the data show it: active = GI50 up to about 1.1 µM and inactive = higher.
# Experiments:
# Experiment in all cases: inhibition of tumour cell growth, NCI panel, 48 h
# [1] = system: 786-0
# [2] = system: A498
# [3] = system: A549
# [4] = system: ACHN
# [5] = system: BT-549
# [6] = system: CAKI-1
# [7] = system: CCRF-CEM
# [8] = system: COLO 205
# [9] = system: DU-145
# [10] = system: EKVX
# [11] = system: HCC 2998
# [12] = system: HCT-116
# [13] = system: HCT-15
# [14] = system: HL-60
# [15] = system: HOP-92
# [16] = system: IGROV-1
# [17] = system: K562
# [18] = system: KM12
# [19] = system: LOX IMVI
# [20] = system: M14
# [21] = system: MCF7
# [22] = system: MDA-MB-231
# [23] = system: MDA-MB-435
# [24] = system: MDA-N
# [25] = system: MOLT-4
# [26] = system: Malme-3M
# [27] = system: NCI-H226
# [28] = system: NCI-H23
# [29] = system: NCI-H460
# [30] = system: NCI-H522
# [31] = system: NCI/ADR-RES
# [32] = system: OVCAR-3
# [33] = system: OVCAR-4
# [34] = system: OVCAR-5
# [35] = system: OVCAR-8
# [36] = system: PC-3
# [37] = system: RPMI-8226
# [38] = system: RXF 393
# [39] = system: SF-295
# [40] = system: SF-539
# [41] = system: SK-MEL-2
# [42] = system: SK-MEL-5
# [43] = system: SK-OV-3
# [44] = system: SN12C
# [45] = system: SNB-75
# [46] = system: SR
# [47] = system: SW-620
# [48] = system: TK-10
# [49] = system: U-251
# [50] = system: UACC-257
# [51] = system: UACC-62
# [52] = system: UO-31
# [53] = system: HOP-62
# [54] = system: HT-29
# [55] = system: SF-268
# [56] = system: SK-MEL-28
# [57] = system: SNB-19
# [58] = system: T47D
# [59] = system: Hs-578T
smiles,measurement,setting,value
Cc1ccc(C(=O)C2=CN=C3C(=O)N(c4ccccc4)N(C)C3(C)C2=N)cc1 (stereo not given),GI50,[1],> 100 µM (inactive)
same,GI50,[2],> 100 µM (inactive)
same,GI50,[3],> 100 µM (inactive)
same,GI50,[4],> 100 µM (inactive)
same,GI50,[5],> 100 µM (inactive)
same,GI50,[6],> 100 µM (inactive)
same,GI50,[7],> 100 µM (inactive)
same,GI50,[8],> 100 µM (inactive)
same,GI50,[9],> 100 µM (inactive)
same,GI50,[10],> 100 µM (inactive)
same,GI50,[11],> 100 µM (inactive)
same,GI50,[12],> 100 µM (inactive)
same,GI50,[13],> 100 µM
same,GI50,[14],> 100 µM (inactive)
same,GI50,[15],> 100 µM (inactive)
same,GI50,[16],> 100 µM (inactive)
same,GI50,[17],> 100 µM (inactive)
same,GI50,[18],> 100 µM (inactive)
same,GI50,[19],> 100 µM (inactive)
same,GI50,[20],> 100 µM (inactive)
same,GI50,[21],> 100 µM (inactive)
same,GI50,[22],> 100 µM (inactive)
same,GI50,[23],> 100 µM (inactive)
same,GI50,[24],> 100 µM (inactive)
same,GI50,[25],> 100 µM (inactive)
same,GI50,[26],> 100 µM (inactive)
same,GI50,[27],> 100 µM (inactive)
same,GI50,[28],> 100 µM (inactive)
same,GI50,[29],> 100 µM (inactive)
same,GI50,[30],> 100 µM (inactive)
same,GI50,[31],> 100 µM (inactive)
same,GI50,[32],> 100 µM (inactive)
same,GI50,[33],> 100 µM (inactive)
same,GI50,[34],> 100 µM (inactive)
same,GI50,[35],> 100 µM (inactive)
same,GI50,[36],> 100 µM (inactive)
same,GI50,[37],> 100 µM (inactive)
same,GI50,[38],> 100 µM (inactive)
same,GI50,[39],> 100 µM (inactive)
same,GI50,[40],> 100 µM (inactive)
same,GI50,[41],> 100 µM (inactive)
same,GI50,[42],> 100 µM (inactive)
same,GI50,[43],> 100 µM (inactive)
same,GI50,[44],> 100 µM (inactive)
same,GI50,[45],> 100 µM (inactive)
same,GI50,[46],> 100 µM (inactive)
same,GI50,[47],> 100 µM (inactive)
same,GI50,[48],> 100 µM (inactive)
same,GI50,[49],> 100 µM (inactive)
same,GI50,[50],> 100 µM (inactive)
same,GI50,[51],> 100 µM (inactive)
same,GI50,[52],> 100 µM (inactive)
CC1(C)O[C@@H]2[C@@H](COC(C)(C)O[C@H]2C2SCCCS2)O1,GI50,[1],> 100 µM (inactive)
same,GI50,[2],> 100 µM (inactive)
same,GI50,[3],> 100 µM (inactive)
same,GI50,[4],> 100 µM (inactive)
same,GI50,[6],> 100 µM (inactive)
same,GI50,[8],> 100 µM (inactive)
same,GI50,[9],> 100 µM (inactive)
same,GI50,[11],> 100 µM (inactive)
same,GI50,[12],> 100 µM (inactive)
same,GI50,[13],> 100 µM
same,GI50,[53],> 100 µM (inactive)
same,GI50,[15],92.7 µM (inactive)
same,GI50,[54],> 100 µM (inactive)
same,GI50,[17],> 100 µM (inactive)
same,GI50,[18],> 100 µM (inactive)
same,GI50,[20],> 100 µM (inactive)
same,GI50,[21],> 100 µM (inactive)
same,GI50,[22],> 100 µM (inactive)
same,GI50,[23],> 100 µM (inactive)
same,GI50,[24],> 100 µM (inactive)
same,GI50,[25],> 100 µM (inactive)
same,GI50,[26],> 100 µM (inactive)
same,GI50,[28],> 100 µM (inactive)
same,GI50,[29],> 100 µM (inactive)
same,GI50,[30],> 100 µM (inactive)
same,GI50,[31],> 100 µM (inactive)
same,GI50,[32],> 100 µM (inactive)
same,GI50,[33],> 100 µM (inactive)
same,GI50,[34],> 100 µM (inactive)
same,GI50,[35],> 100 µM (inactive)
same,GI50,[36],> 100 µM (inactive)
same,GI50,[37],> 100 µM (inactive)
same,GI50,[38],> 100 µM (inactive)
same,GI50,[55],> 100 µM (inactive)
same,GI50,[39],> 100 µM (inactive)
same,GI50,[40],> 100 µM (inactive)
same,GI50,[56],> 100 µM (inactive)
same,GI50,[41],> 100 µM (inactive)
same,GI50,[42],> 100 µM (inactive)
same,GI50,[43],> 100 µM (inactive)
same,GI50,[44],> 100 µM (inactive)
same,GI50,[57],> 100 µM (inactive)
same,GI50,[47],> 100 µM (inactive)
same,GI50,[58],> 100 µM (inactive)
same,GI50,[49],> 100 µM (inactive)
same,GI50,[51],> 100 µM (inactive)
same,GI50,[52],> 100 µM (inactive)
S=C(/C=C1\SC(=N\c2ccccc2)/C(=N/c2ccccc2)N1c1ccccc1)Nc1ccccc1,GI50,[2],> 100 µM (inactive)
same,GI50,[6],> 100 µM (inactive)
same,GI50,[7],3.66 µM (inactive)
same,GI50,[8],> 100 µM (inactive)
same,GI50,[9],> 100 µM (inactive)
same,GI50,[12],> 100 µM (inactive)
same,GI50,[13],> 100 µM
same,GI50,[14],> 100 µM (inactive)
same,GI50,[53],> 100 µM (inactive)
same,GI50,[15],> 100 µM (inactive)
same,GI50,[54],> 100 µM (inactive)
same,GI50,[59],> 100 µM (inactive)
same,GI50,[16],> 100 µM (inactive)
same,GI50,[18],> 100 µM (inactive)
same,GI50,[20],> 100 µM (inactive)
same,GI50,[22],> 100 µM (inactive)
same,GI50,[23],> 100 µM (inactive)
same,GI50,[24],> 100 µM (inactive)
same,GI50,[25],15.2 µM (inactive)
same,GI50,[26],> 100 µM (inactive)
same,GI50,[28],> 100 µM (inactive)
same,GI50,[29],> 100 µM (inactive)
same,GI50,[30],> 100 µM (inactive)
same,GI50,[31],> 100 µM (inactive)
same,GI50,[32],> 100 µM (inactive)
same,GI50,[35],> 100 µM (inactive)
same,GI50,[36],> 100 µM (inactive)
same,GI50,[37],> 100 µM (inactive)
same,GI50,[39],> 100 µM (inactive)
same,GI50,[56],> 100 µM (inactive)
same,GI50,[41],> 100 µM (inactive)
same,GI50,[42],> 100 µM (inactive)
same,GI50,[43],67.3 µM (inactive)
same,GI50,[44],> 100 µM (inactive)
same,GI50,[45],> 100 µM (inactive)
same,GI50,[46],> 100 µM (inactive)
same,GI50,[58],> 100 µM (inactive)
same,GI50,[49],> 100 µM (inactive)
same,GI50,[51],51.6 µM (inactive)
CCN(CC)CC1CCCCN1CC(=O)N1c2ccccc2C(=O)Nc2cccnc21 (stereo not given) [OTENZEPAD],GI50,[1],35.4 µM (inactive)
same,GI50,[2],> 100 µM (inactive)
same,GI50,[3],17 µM (inactive)
same,GI50,[4],56 µM (inactive)
same,GI50,[6],> 100 µM (inactive)
same,GI50,[7],19 µM (inactive)
same,GI50,[8],23.2 µM (inactive)
same,GI50,[9],> 100 µM (inactive)
same,GI50,[10],> 100 µM (inactive)
same,GI50,[11],> 100 µM (inactive)
same,GI50,[12],12.2 µM (inactive)
same,GI50,[13],38.6 µM
same,GI50,[14],17.4 µM (inactive)
same,GI50,[53],34.7 µM (inactive)
same,GI50,[15],> 100 µM (inactive)
same,GI50,[54],21.8 µM (inactive)
same,GI50,[59],93.1 µM (inactive)
same,GI50,[16],> 100 µM (inactive)
same,GI50,[18],66.7 µM (inactive)
same,GI50,[19],18.3 µM (inactive)
same,GI50,[20],68.9 µM (inactive)
same,GI50,[21],27.9 µM (inactive)
same,GI50,[22],32.1 µM (inactive)
same,GI50,[23],63 µM (inactive)
same,GI50,[24],66.2 µM (inactive)
same,GI50,[25],21 µM (inactive)
same,GI50,[26],> 100 µM (inactive)
same,GI50,[27],41 µM (inactive)
same,GI50,[28],52 µM (inactive)
same,GI50,[29],59.3 µM (inactive)
same,GI50,[30],> 100 µM (inactive)
same,GI50,[31],20.8 µM (inactive)
same,GI50,[32],> 100 µM (inactive)
same,GI50,[33],38.9 µM (inactive)
same,GI50,[34],83.2 µM (inactive)
same,GI50,[35],45.4 µM (inactive)
same,GI50,[36],36.8 µM (inactive)
same,GI50,[37],35.6 µM (inactive)
same,GI50,[38],> 100 µM (inactive)
same,GI50,[55],59.2 µM (inactive)
same,GI50,[39],> 100 µM (inactive)
same,GI50,[40],40.6 µM (inactive)
same,GI50,[56],> 100 µM (inactive)
same,GI50,[41],> 100 µM (inactive)
same,GI50,[42],> 100 µM (inactive)
same,GI50,[43],> 100 µM (inactive)
same,GI50,[44],50.9 µM (inactive)
same,GI50,[57],> 100 µM (inactive)
same,GI50,[45],99.1 µM (inactive)
same,GI50,[46],28.1 µM (inactive)
same,GI50,[47],36.7 µM (inactive)
same,GI50,[58],> 100 µM (inactive)
same,GI50,[48],> 100 µM (inactive)
same,GI50,[49],60.5 µM (inactive)
same,GI50,[50],38.1 µM (inactive)
same,GI50,[51],91.4 µM (inactive)
same,GI50,[52],1.97 µM (inactive)

# Reference: ChEMBL document CHEMBL1201862, “PubChem BioAssay data set” (2004)
